# Measured values as given in patent US10519111B2, “UV absorbing compounds, compositions comprising same and uses thereof” (CORAL SUNSCREEN PTY LTD, priority 2013, dated 2019).
# Where “and” joins values, the source holds several entries; their conditions need not be identical. Equal values may be shown once.
# Experiment: UV absorption properties (λmax, molar extinction coefficient ε, efficiency E 1%, 1 cm)
# Type: physicochemical
# Details: for ε (molar extinction coefficient): values in order of the λmax values; for ε value: unit inferred
compound,measurement,value
"C=CC(=O)C1=CN(c2ccc(OC)cc2)CCC1(C)C [Compound 53, 1-(1-(4-methoxyphenyl)-4,4-dimethyl-1,4,5,6-tetrahydropyridin-3-yl)prop-2-en-1-one]",UV λmax,350 nm
same,ε (molar extinction coefficient),21500 M⁻¹ cm⁻¹
"COc1ccc(N2C=C(C(=O)c3ccc(F)cc3)C(C)(C)CC2)cc1 [Compound 54, (4-fluorophenyl)(1-(4-methoxyphenyl)-4,4-dimethyl-1,4,5,6-tetrahydropyridin-3-yl)methanone]",UV λmax,341 nm
same,ε (molar extinction coefficient),19350 M⁻¹ cm⁻¹
"CCC(=O)C1=C(c2ccccc2)N(CC(C)C)CCC1(C)C [Compound 58, 1-(1-isobutyl-4,4-dimethyl-2-phenyl-1,4,5,6-tetrahydropyridin-3-yl)propan-1-one]",UV λmax,338 nm
same,ε (molar extinction coefficient),8000 M⁻¹ cm⁻¹
"CCC(=O)O/C(=C\C1=CC(C)(C)CCN1CC(C)C)CC [Compound 60, 1-(1-isobutyl-4,4-dimethyl-1,4,5,6-tetrahydropyridin-2-yl)but-1-en-2-yl propionate]",UV λmax,323 nm
same,ε (molar extinction coefficient),20000 M⁻¹ cm⁻¹
"CCC(=O)C1=CN(CC(C)C)C(=O)CC1(C)C [Compound 64, 1-isobutyl-4,4-dimethyl-5-propionyl-3,4-dihydropyridin-2(1H)-one]",UV λmax,291 nm
"CCC(=O)C1=CN(CC(C)C)C=CC1(C)C [Compound 65, 1-(1-isobutyl-4,4-dimethyl-1,4-dihydropyridin-3-yl)propan-1-one]",UV λmax,366 nm
"CC(C)CN1C=C(C(=O)CCC(=O)O)C(C)(C)CC1 [Compound 70, 4-(1-isobutyl-4,4-dimethyl-1,4,5,6-tetrahydropyridin-3-yl)-4-oxobutanoic acid]",UV λmax,308 nm
"CC(C)CN1C=C(C(=O)C(c2ccccc2)c2ccccc2)C(C)(C)CC1 [Compound 71, 1-(1-isobutyl-4,4-dimethyl-1,4,5,6-tetrahydropyridin-3-yl)-2,2-diphenylethanone]",UV λmax,314 nm
same,ε (molar extinction coefficient),26000 M⁻¹ cm⁻¹
"CC(C)CN1C=C(S(=O)(=O)c2ccccc2)C(C)(C)CC1 [Compound 72, 1-Isobutyl-4,4-dimethyl-5-(phenylsulfonyl)-1,2,3,4-tetrahydropyridine]",UV λmax,285 nm
"Cc1cc(N2C=CC(C)(C)C=C2)n(C)n1 [Compound 152, 1-(1,3-dimethyl-1H-pyrazol-5-yl)-4,4-dimethyl-1,4-dihydropyridine]",UV λmax,253 nm
same,ε (molar extinction coefficient),11371 M⁻¹ cm⁻¹
"C=CC(=O)C1=CN(C(C)(C)C)CCC1(C)C [Compound 154, 1-(1-(tert-butyl)-4,4-dimethyl-1,4,5,6-tetrahydropyridin-3-yl)prop-2-en-1-one]",UV λmax,328 nm
same,ε (molar extinction coefficient),24907 M⁻¹ cm⁻¹
"CC1(C)CCN(C(C)(C)C)C=C1C(=O)/C=C/c1ccccc1 [Compound 155, (E)-1-(1-(tert-butyl)-4,4-dimethyl-1,4,5,6-tetrahydropyridin-3-yl)-3-phenylprop-2-en-1-one]",UV λmax,360 nm
same,ε (molar extinction coefficient),23198 M⁻¹ cm⁻¹
"CC1(C)CCN(C(C)(C)C)C=C1C(=O)c1ccc(Br)cc1 [Compound 156, (4-bromophenyl)(1-(tert-butyl)-4,4-dimethyl-1,4,5,6-tetrahydropyridin-3-yl)methanone]",UV λmax,317 nm
same,ε (molar extinction coefficient),27506 M⁻¹ cm⁻¹
"CC1(C)CCN(C(C)(C)C)C=C1C(=O)CCCCCCCCC(=O)C1=CN(C(C)(C)C)CCC1(C)C [Compound 166, 1,10-bis(1-(tert-butyl)-4,4-dimethyl-1,4,5,6-tetrahydropyridin-3-yl)decane-1,10-dione]",UV λmax,307 nm
same,ε value,> 54000 M⁻¹ cm⁻¹
same,ε (molar extinction coefficient),54797 M⁻¹ cm⁻¹
"CC1(C)CCN(C(C)(C)C)C=C1C(=O)C1=CN(C(C)(C)C)CCC1(C)C [Compound 167, bis(1-(tert-butyl)-4,4-dimethyl-1,4,5,6-tetrahydropyridin-3-yl)methanone]",UV λmax,305 nm
same,ε (molar extinction coefficient),15425 M⁻¹ cm⁻¹
"CC1(C)CCN(C(C)(C)C)C=C1C(=O)COc1ccccc1 [Compound 168, 1-(1-(tert-butyl)-4,4-dimethyl-1,4,5,6-tetrahydropyridin-3-yl)-2-phenoxyethanone]",UV λmax,313 nm
same,ε (molar extinction coefficient),26154 M⁻¹ cm⁻¹
"CC1(C)CCN(C(C)(C)C)C=C1C(=O)c1ccncc1 [Compound 169, (1-(tert-butyl)-4,4-dimethyl-1,4,5,6-tetrahydropyridin-3-yl)(pyridin-4-yl)methanone]",UV λmax,316 nm
same,ε (molar extinction coefficient),23556 M⁻¹ cm⁻¹
"CC1(C)CCN(C(C)(C)C)C=C1C(=O)CC(=O)c1ccccc1 [Compound 170, 1-(1-(tert-butyl)-4,4-dimethyl-1,4,5,6-tetrahydropyridin-3-yl)-3-phenylpropane-1,3-dione]",UV λmax,396 nm and 309 nm
"COc1ccc(N2C=C(C(=O)C3CCCC3=O)C(C)(C)CC2)cc1 (stereo not shown) [Compound 171, 2-(1-(4-methoxyphenyl)-4,4-dimethyl-1,4,5,6-tetrahydropyridine-3-carbonyl)cyclopentanone]",UV λmax,332 nm
same,ε (molar extinction coefficient),30675 M⁻¹ cm⁻¹
"Cc1ccc(N2C=C(C(=O)CCCCCCCCC(=O)C3=CN(c4ccc(C)cc4)CCC3(C)C)C(C)(C)CC2)cc1 [Compound 172, 1,10-bis(4,4-dimethyl-1-(p-tolyl)-1,4,5,6-tetrahydropyridin-3-yl)decane-1,10-dione]",UV λmax,328 nm
same,ε value,> 52000 M⁻¹ cm⁻¹
same,ε (molar extinction coefficient),52737 M⁻¹ cm⁻¹
"COc1ccc(N2C=C(C(=O)COc3ccccc3)C(C)(C)CC2)cc1 [Compound 173, 1-(1-(4-methoxyphenyl)-4,4-dimethyl-1,4,5,6-tetrahydropyridine-3-yl)-2-phenoxyethanone]",UV λmax,339 nm
same,ε (molar extinction coefficient),26633 M⁻¹ cm⁻¹
"COc1ccc(N2C=C(C(=O)Cc3ccccc3)C(C)(C)CC2)cc1 [Compound 174, 1-(1-(4-methoxyphenyl)-4,4-dimethyl-1,4,5,6-tetrahydropyridin-3-yl)-2-phenylethanone]",UV λmax,334 nm
same,ε (molar extinction coefficient),33786 M⁻¹ cm⁻¹
"CCCCCCCC(=O)C1=CN(c2ccc(N(C)C)cc2)CCC1(C)C [Compound 175, 1-(1-(4-(dimethylamino)phenyl)-4,4-dimethyl-1,4,5,6-tetrahydropyridin-3-yl)octan-1-one]",UV λmax,338 nm
same,ε (molar extinction coefficient),28040 M⁻¹ cm⁻¹
"CCC(=O)C1=CN(c2ccc(C)cc2)CCC1(C)C [Compound 176, 1-(4,4-dimethyl-1-(p-tolyl)-1,4,5,6-tetrahydropyridin-3-yl)propan-1-one]",UV λmax,327 nm
same,ε (molar extinction coefficient),34608 M⁻¹ cm⁻¹
"CCC(=O)C1=CN(c2ccc(C(C)(C)C)cc2)CCC1(C)C [Compound 177, 1-(1-(4-(tert-butyl)phenyl)-4,4-dimethyl-1,4,5,6-tetrahydropyridin-3-yl)propan-1-one]",UV λmax,329 nm
same,ε (molar extinction coefficient),31955 M⁻¹ cm⁻¹
"CCC(=O)C1=CN(c2cccc3ccccc23)CCC1(C)C [Compound 178, 1-(4,4-dimethyl-1-(naphthalen-1-yl)-1,4,5,6-tetrahydropyridin-3-yl)propan-1-one]",UV λmax,321 nm
same,ε (molar extinction coefficient),23247 M⁻¹ cm⁻¹
"CC1(C)CCN(C(C)(C)C)C=C1C(=O)Nc1ccccc1 [Compound 179, 1-(tert-butyl)-4,4-dimethyl-N-phenyl-1,4,5,6-tetrahydropyridine-3-carboxamide]",UV λmax,308 nm
same,ε value,35000 M⁻¹ cm⁻¹
same,ε (molar extinction coefficient),34834 M⁻¹ cm⁻¹
"CN(C(=O)C1=CN(C(C)(C)C)CCC1(C)C)c1ccccc1 [Compound 180, 1-(tert-butyl)-N,4,4-trimethyl-N-phenyl-1,4,5,6-tetrahydropyridine-3-carboxamide]",UV λmax,312 nm
same,ε (molar extinction coefficient),15174 M⁻¹ cm⁻¹
"CC1(C)CCN(C(C)(C)C)C=C1C(=O)NCCCCCCNC(=O)C1=CN(C(C)(C)C)CCC1(C)C [Compound 181, N,N′-(hexane-1,6-diyl)bis(1-(tert-butyl)-4,4-dimethyl-1,4,5,6-tetrahydropyridine-3-carboxamide)]",UV λmax,289 nm
same,ε (molar extinction coefficient),31072 M⁻¹ cm⁻¹
"CC1(C)CCN(C(C)(C)C)C=C1C(=S)Nc1ccccc1 [Compound 182, 1-(tert-butyl)-4,4-dimethyl-N-phenyl-1,4,5,6-tetrahydropyridine-3-carbothioamide]",UV λmax,363 nm
same,ε (molar extinction coefficient),20881 M⁻¹ cm⁻¹
"CCCCNC(=O)C1=CN(C(C)(C)C)CCC1(C)C [Compound 183, 1-(tert-butyl)-N-butyl-4,4-dimethyl-1,4,5,6-tetrahydropyridine-3-carboxamide]",UV λmax,288 nm
same,ε (molar extinction coefficient),22531 M⁻¹ cm⁻¹
"Cc1ccc(NC(=O)C2=CN(C(C)(C)C)CCC2(C)C)cc1NC(=O)C1=CN(C(C)(C)C)CCC1(C)C [Compound 184, N,N′-(4-methyl-1,3-phenylene)bis(1-(tert-butyl)-4,4-dimethyl-1,4,5,6-tetrahydropyridine-3-carboxamide)]",UV λmax,308 nm
"CC1(C)CCN(C(C)(C)C)C=C1C(=O)Nc1ccc(Cc2ccc(NC(=O)C3=CN(C(C)(C)C)CCC3(C)C)cc2)cc1 [Compound 185, N,N′-(methylenebis(4,1-phenylene))bis(1-(tert-butyl)-4,4-dimethyl-1,4,5,6-tetrahydropyridine-3-carboxamide)]",UV λmax,310 nm
same,ε (molar extinction coefficient),64589 M⁻¹ cm⁻¹
"Cc1ccc(S(=O)(=O)NC(=O)C2=CN(C(C)(C)C)CCC2(C)C)cc1 [Compound 186, 1-(tert-butyl)-4,4-dimethyl-N-tosyl-1,4,5,6-tetrahydropyridine-3-carboxamide]",UV λmax,304 nm
same,ε (molar extinction coefficient),34588 M⁻¹ cm⁻¹
"CC1(C)CCN(C(C)(C)C)C=C1C(=O)Nc1ccc(NC(=O)C2=CN(C(C)(C)C)CCC2(C)C)cc1 [Compound 187, N,N′-(1,4-phenylene)bis(1-(tert-butyl)-4,4-dimethyl-1,4,5,6-tetrahydropyridine-3-carboxamide)]",UV λmax,322 nm
same,ε (molar extinction coefficient),71962 M⁻¹ cm⁻¹
